{"source": "patent US7078382B1", "about": "“Modulation of eNOS activity and therapeutic uses thereof” (Genentech, Inc., priority 1999, dated 2006)", "key": {"[1]": {"system": "eNOS expression", "test": "eNOS expression by Western blot in ACE cells", "format": "cell-based, bovine", "conditions": "for eNOS expression with KDR-specific VEGF variants / eNOS expression with angiogenic factors: 500 pM; for effect of signalling inhibitors on VEGF-induced eNOS expression: with 500 pM rhVEGF; for eNOS expression, time course: 0-5 days, VEGF alone or co-incubated with L-NAME (2 mM) or SNAP; for effect on VEGF-induced eNOS expression, KDR tyrosine kinase inhibitor: co-incubated with 500 pM rhVEGF; for eNOS expression with VEGF forms and receptor-selective variants: equal concentrations, two days", "procedure": "At the end of incubation, total cell lysates were prepared, and eNOS protein levels were determined by Western blot analysis.\nBovine adrenal cortex capillary endothelial cells (ACE) were prepared and maintained as previously described (Ferrara et.al., 1989 Biochem. Biophys. Res. Commun. 161:851–858). Briefly, cells were plated onto 6-well tissue culture plates (Costar) and grown in low glucose Dulbecco's modified Eagle's medium, supplemented with 2 mM […] (Life Technologies), 10% bovine calf serum (HyClone Lab., Inc.) and 100 μg/ml Penicillin/Streptomycin (Life Technologies). ACE cells were used between passages 4 and 8.\nMedium was changed every 24 hours.\nThe methods for cell lysis and Western blot (WB) have been described in Shen et al., 1998 J. Biol. Chem. 273:29979–29985. A monoclonal anti-eNOS antibody was used at 1:2500 to probe eNOS protein. A secondary antibody conjugated with horseradish peroxidase (1:2500) (Zymed) and an enhanced chemiluminescent kit (Amershal Pharmacia Biotech) were used to visualize the eNOS immunoreactive bands. Multiple exposures of films were obtained to determine the optical exposure time. The protein bands were scanned by a densitometer and the relative intensities were quantified using IMAGEQUANT® software (Molecular Dynamics).\n(§1) Confluent ACE cells were incubated with 500 pM rhVEGF. Total cell lysates were prepared as described above. Equal amounts of protein were denatured under reducing conditions and separated in a 10% Novex mini gel and transferred to PVDF membrane. eNOS protein signals were visualized by ECL and quantified using densitometry."}, "[2]": {"molecular_target": "Flt-1 receptor", "sequence (P17948 27-327 limits assumed)": "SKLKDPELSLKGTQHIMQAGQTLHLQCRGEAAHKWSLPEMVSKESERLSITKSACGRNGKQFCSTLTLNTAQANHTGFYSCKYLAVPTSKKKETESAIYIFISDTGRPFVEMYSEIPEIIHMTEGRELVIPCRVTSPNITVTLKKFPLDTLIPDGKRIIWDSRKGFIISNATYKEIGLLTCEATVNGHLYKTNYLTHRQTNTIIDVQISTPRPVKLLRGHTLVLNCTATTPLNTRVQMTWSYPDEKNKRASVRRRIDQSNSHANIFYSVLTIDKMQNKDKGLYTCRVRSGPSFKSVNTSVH", "test": "Flt-1 receptor binding ELISA (inhibition of biotinylated native VEGF binding to Flt-IgG)", "conditions": "first figure of the cell, read-out: Binding to FLT-1 Receptor, concentration at midpoint absorbance", "procedure": "Receptor binding assays were performed in 96-well immunoplates (Maxisorp, Nunc-Immunoplate, Nalge Nunc International, Rochester, N.Y.). Each well was coated with 100 μl of a solution containing 2 μg/ml of rabbit F(ab′)2 to human IgG Fc (Jackson ImmunoResearch, West Grove, Pa.) in 50 mM carbonate buffer at pH 9.6 and incubated at 4° C. overnight. The supernatant was then discarded, the wells were washed three times in washing buffer (0.05% Tween 20 in PBS), and the plate was blocked (150 μl per well) with block buffer (0.5% BSA, 0.01% thimerosal in PBS) at room temperature for one hour. The supernatant was discarded, and the wells were washed.\nThe wells were filled with 100 μl of a solution containing Flt-IgG (a chimeric Flt-human Fc molecule) at 50 ng/ml in assay buffer (0.5% BSA, 0.05% Tween 20 in PBS). The wells were incubated at room temperature for 1 hour and then washed three times in wash buffer (0.05% Tween 20 in PBS).\nAliquots of the mixture (100 μl) were added to the precoated microtiter wells and the plate was incubated for 2 hours at room temperature. […] Absorbance was read at 450 nm on a Vmax plate reader (Molecular Devices, Menlo Park, Calif.).\nTitration curves were fit with a four-parameter nonlinear regression curve-fitting program (KaleidaGraph, Synergy Software, Reading, Pa.)."}, "[3]": {"conditions": "angina patients, prolonged time point, early results", "from_the_text": "Luscher TF (1992) Br. J. Clin. Pharmacol. 34 Suppl. 1:29S–35S."}, "[4]": {"molecular_target": "Flt-1 receptor (Homo sapiens, UniProt P17948)", "sequence (P17948 27-1338)": "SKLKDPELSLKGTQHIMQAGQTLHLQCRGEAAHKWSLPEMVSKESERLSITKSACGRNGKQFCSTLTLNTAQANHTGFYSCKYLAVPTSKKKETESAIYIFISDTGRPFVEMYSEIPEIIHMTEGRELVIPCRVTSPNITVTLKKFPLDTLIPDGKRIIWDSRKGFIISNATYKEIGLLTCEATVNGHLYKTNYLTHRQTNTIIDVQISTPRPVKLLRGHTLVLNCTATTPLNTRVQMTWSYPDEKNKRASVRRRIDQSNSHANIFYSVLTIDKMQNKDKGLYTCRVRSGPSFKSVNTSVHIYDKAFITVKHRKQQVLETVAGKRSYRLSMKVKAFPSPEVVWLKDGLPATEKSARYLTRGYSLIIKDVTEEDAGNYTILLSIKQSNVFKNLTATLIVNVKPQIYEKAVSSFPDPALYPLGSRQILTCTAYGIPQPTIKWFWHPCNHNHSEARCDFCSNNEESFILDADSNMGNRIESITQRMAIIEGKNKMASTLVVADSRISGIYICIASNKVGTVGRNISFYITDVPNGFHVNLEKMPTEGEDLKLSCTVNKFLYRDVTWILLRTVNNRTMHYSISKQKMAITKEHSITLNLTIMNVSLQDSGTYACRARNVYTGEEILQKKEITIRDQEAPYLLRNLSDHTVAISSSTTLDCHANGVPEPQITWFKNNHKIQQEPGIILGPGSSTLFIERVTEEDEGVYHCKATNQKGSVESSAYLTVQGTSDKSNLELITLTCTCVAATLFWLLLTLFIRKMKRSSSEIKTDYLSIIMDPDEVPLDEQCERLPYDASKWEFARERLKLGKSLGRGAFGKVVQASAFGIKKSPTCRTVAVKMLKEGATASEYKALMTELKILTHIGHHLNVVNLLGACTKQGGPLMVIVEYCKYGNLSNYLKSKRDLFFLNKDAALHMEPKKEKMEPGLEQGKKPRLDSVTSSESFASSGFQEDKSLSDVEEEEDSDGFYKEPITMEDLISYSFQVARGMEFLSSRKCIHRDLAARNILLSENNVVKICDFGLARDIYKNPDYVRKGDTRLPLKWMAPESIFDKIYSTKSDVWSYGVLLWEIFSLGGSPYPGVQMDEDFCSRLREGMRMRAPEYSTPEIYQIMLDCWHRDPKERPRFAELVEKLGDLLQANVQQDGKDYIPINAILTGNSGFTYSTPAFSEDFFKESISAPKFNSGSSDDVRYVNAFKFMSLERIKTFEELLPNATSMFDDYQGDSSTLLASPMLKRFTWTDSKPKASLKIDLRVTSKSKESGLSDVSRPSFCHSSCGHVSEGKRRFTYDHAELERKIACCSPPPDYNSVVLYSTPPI", "test": "RIA binding assay, FLT-1 receptor", "from_the_text": "The results are shown below in Table 6."}, "[5]": {"conditions": "coronary artery disease patients, intracoronary or intravenous infusion at 0.05 microgram/Kg body weight/minute", "from_the_text": "In one aspect, the invention provides methods for treating a NO associated disorder or condition such as hypertension, diabetes, thrombosis, angina, heart failure or atherosclerosis."}, "[6]": {"molecular_target": "T1, KDR receptor (Homo sapiens, UniProt P35968)", "T1 construct": "host or cells: CHO cells", "T1 sequence (P35968 20-1356)": "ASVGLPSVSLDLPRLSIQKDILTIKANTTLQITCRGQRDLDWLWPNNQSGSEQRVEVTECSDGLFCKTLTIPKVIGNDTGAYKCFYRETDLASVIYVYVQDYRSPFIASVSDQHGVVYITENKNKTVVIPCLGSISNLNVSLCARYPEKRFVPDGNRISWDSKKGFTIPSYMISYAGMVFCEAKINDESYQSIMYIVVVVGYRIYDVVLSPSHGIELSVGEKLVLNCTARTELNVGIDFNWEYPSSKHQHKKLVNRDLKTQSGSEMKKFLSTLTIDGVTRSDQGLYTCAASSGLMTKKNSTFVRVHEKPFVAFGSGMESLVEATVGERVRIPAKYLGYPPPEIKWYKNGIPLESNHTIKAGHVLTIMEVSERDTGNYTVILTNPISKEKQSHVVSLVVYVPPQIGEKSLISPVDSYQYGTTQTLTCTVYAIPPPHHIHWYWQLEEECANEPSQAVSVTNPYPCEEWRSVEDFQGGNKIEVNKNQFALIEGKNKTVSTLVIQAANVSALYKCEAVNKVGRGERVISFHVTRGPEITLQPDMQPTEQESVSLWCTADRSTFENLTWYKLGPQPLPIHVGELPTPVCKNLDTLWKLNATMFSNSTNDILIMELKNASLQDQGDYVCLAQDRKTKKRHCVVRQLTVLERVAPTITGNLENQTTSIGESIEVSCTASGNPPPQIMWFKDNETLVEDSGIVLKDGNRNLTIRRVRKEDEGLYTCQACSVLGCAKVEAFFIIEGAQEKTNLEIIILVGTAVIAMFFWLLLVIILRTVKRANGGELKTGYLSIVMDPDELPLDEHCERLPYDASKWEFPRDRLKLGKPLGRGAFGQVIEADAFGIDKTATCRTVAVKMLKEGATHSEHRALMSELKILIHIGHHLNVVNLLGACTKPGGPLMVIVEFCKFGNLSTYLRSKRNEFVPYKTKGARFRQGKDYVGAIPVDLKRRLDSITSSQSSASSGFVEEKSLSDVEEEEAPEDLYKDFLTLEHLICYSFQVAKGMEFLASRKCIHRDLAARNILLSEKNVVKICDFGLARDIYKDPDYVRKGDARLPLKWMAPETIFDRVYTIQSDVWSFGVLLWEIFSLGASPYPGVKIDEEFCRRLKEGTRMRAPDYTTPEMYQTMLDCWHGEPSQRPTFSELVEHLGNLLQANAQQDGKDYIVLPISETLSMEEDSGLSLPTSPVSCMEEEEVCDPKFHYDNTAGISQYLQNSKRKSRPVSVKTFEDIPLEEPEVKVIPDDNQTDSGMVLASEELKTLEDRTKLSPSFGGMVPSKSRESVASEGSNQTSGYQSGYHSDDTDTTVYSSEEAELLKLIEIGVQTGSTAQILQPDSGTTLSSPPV", "test": "RIA binding assay, KDR receptor"}, "[7]": {"system": "eNOS", "test": "Association of proteins with eNOS (immunoprecipitation, Western blot) in endothelial cells", "conditions": "VEGF 1-60 minutes"}, "[8]": {"system": "eNOS activity", "conditions": "ACE cells", "procedure": "as §1"}, "[9]": {"system": "PKC", "conditions": "ACE cells, rhVEGF 500 pM, 10 minutes", "procedure": "Cytosolic and membrane fractions were prepared to investigate the re-distribution or PKC isoforms. […] (See FIG. 5A)."}, "[10]": {"system": "PAE/FLT-1 cells", "conditions": "500 pM rhVEGF, 2 days", "procedure": "Porcine aorta endothelial (PAE) cells, and receptor transfected PAE cells (PAE/KDR and PAE/FLT-1) were provided by Napoleone Ferrara (Genentech, Inc.) and cultured in Ham's F-12 medium containing 10% FBS (for PAE), or plus 250 μg/ml G480 (for PAE/KDR and PAE/FLT-1).\nPAE, PAE/KDR and PAE/Flt-1 cells were incubated with or without 500 pM rhVEGF for 2 days. eNOS was detected as described above for Example 1. Other materials and methods used in this study were as described above for Example 1."}}, "note": "“Also recorded” adds a separate entry of the source.", "data": [{"compound": "LK-VRB-2f: full length 1-165 VEGF variant, D63S/G65M/L66R", "values": [{"measurement": "eNOS expression with KDR-specific VEGF variants", "setting": "[1]; 2 days", "value": "markedly up-regulated eNOS expression"}]}, {"compound": "O=c1c(-c2ccc(O)cc2)coc2cc(O)cc(O)c12", "note": "[genistein, reference compound]", "values": [{"measurement": "effect of signalling inhibitors on VEGF-induced eNOS expression", "setting": "[1]; 2 days", "value": "blocked VEGF-induced eNOS expression"}]}, {"compound": "CCCCCCCCCCCCCC(=O)O[C@@H]1[C@@H](C)[C@@]2(O)[C@@H](C=C(CO)C[C@]3(O)C(=O)C(C)=C[C@@H]23)[C@@H]2C(C)(C)[C@]12OC(C)=O", "note": "[PMA, phorbol 12-myristate 13-acetate, reference compound]", "values": [{"measurement": "eNOS levels after PKC activation", "setting": "[1]", "value": "time-dependent (FIG. 5C) and dose-dependent (data not shown) increase in eNOS levels; also recorded: increased eNOS levels"}]}, {"compound": "CO[C@H]1[C@@H](OC)C[C@H](C)[C@@H](OC)C2=CC(=O)C=C(NC(=O)/C(C)=C/C=C\\[C@H](OC)[C@@H](OC(N)=O)/C(C)=C/[C@@H]1C)C2=O", "note": "[herbimycin A, reference compound]", "values": [{"measurement": "effect of signalling inhibitors on VEGF-induced eNOS expression", "setting": "[1]; 2 days", "value": "blocked VEGF-induced eNOS expression"}]}, {"compound": "COC[C@H]1OC(=O)c2coc3c2[C@@]1(C)C1=C(C3=O)[C@@H]2CCC(=O)[C@@]2(C)C[C@H]1OC(C)=O", "note": "[Wortmannin, wortmannin, reference compound]", "values": [{"measurement": "effect of signalling inhibitors on VEGF-induced eNOS expression", "setting": "[1]; 2 days", "value": "no significant effect"}]}, {"compound": "COC(=O)[C@@H](N)CCCNC(=N)N[N+](=O)[O-]", "note": "[L-NAME, L-N^G-Nitroarginine methyl ester, reference compound]", "values": [{"measurement": "eNOS expression, time course", "setting": "[1]", "value": "sustained increase"}]}, {"compound": "CC(C)c1cc(/C=C(\\C#N)C(=O)NCCCc2ccccc2)cc(C(C)C)c1O", "note": "[SU1498, reference compound]", "values": [{"measurement": "effect on VEGF-induced eNOS up-regulation at high concentration", "setting": "[1]; 100 μM, 500 pM rhVEGF, 2 days", "value": "completely blocked"}, {"measurement": "effect on VEGF-induced eNOS expression, KDR tyrosine kinase inhibitor", "setting": "[1]; 2 days", "value": "dose-dependent prevention"}, {"measurement": "effect on VEGF-induced eNOS expression, KDR tyrosine kinase inhibitor", "setting": "[1]; 2 days, listed as SU-149 g", "value": "dose dependent inhibition"}]}, {"compound": "LK-VRB-2s*: VEGF (1-109) variant, D63S/G65M/L66R", "values": [{"measurement": "eNOS expression with KDR-specific VEGF variants", "setting": "[1]; 2 days", "value": "markedly up-regulated eNOS expression"}, {"measurement": "IC50", "setting": "[2]", "value": "> 400", "unit": "nM"}]}, {"compound": "EGF: recombinant human epidermal growth factor (NSDSECPLSHDGYCLHDGVCMYIEALDKYACNCVVGYIGERCQYRDLKWWELR; Epidermal growth factor; UniProt P01133 971-1023, looked up)", "values": [{"measurement": "eNOS expression with angiogenic factors", "setting": "[1]; 2 days", "value": "no significant effect"}]}, {"compound": "FGF: Recombinant human fibroblast growth factor (FGF) basic", "values": [{"measurement": "eNOS expression with angiogenic factors", "setting": "[1]; 2 days", "value": "no significant effect"}]}, {"compound": "Cc1ccc(-c2nn(C(C)(C)C)c3ncnc(N)c23)cc1", "note": "[PP1, reference compound]", "values": [{"measurement": "effect of signalling inhibitors on VEGF-induced eNOS expression", "setting": "[1]; 2 days", "value": "also blocked eNOS expression"}]}, {"compound": "TGF-beta1: recombinant human transforming growth factor", "values": [{"measurement": "eNOS expression with angiogenic factors", "setting": "[1]; 2 days", "value": "reduced endogenous eNOS expression"}]}, {"compound": "HGF: heterodimeric form of recombinant human hepatocyte growth factor", "values": [{"measurement": "eNOS expression with angiogenic factors", "setting": "[1]; 2 days", "value": "capable of increasing eNOS expression"}]}, {"compound": "VEGF", "values": [{"measurement": "angina class, angina frequency, treadmill times versus placebo", "setting": "[3]", "value": "trends of improvement"}, {"measurement": "Relative Binding Affinity FLT-1 Receptor", "setting": "[4]; relative to Native VEGF 165", "value": 1}, {"measurement": "IC50", "setting": "[4]; value in brackets, read-out: Binding affinity FLT-1 Receptor", "value": 0.037, "unit": "nM"}, {"measurement": "eNOS expression, time course", "setting": "[1]", "value": "time-dependent but transient increase; also recorded: time-dependent increase in eNOS expression"}, {"measurement": "eNOS expression with KDR-specific VEGF variants", "setting": "[1]; 2 days", "value": "induced a similar degree of eNOS expression"}, {"measurement": "peak eNOS expression", "setting": "[1]; 2 days (48 hours) post exposure to 500 pM VEGF", "value": 5.5, "unit": "fold"}, {"measurement": "concentration giving maximal increase of eNOS", "setting": "[1]; dose-dependent up-regulation", "value": 500, "unit": "pM"}, {"measurement": "eNOS expression with VEGF forms and receptor-selective variants", "setting": "[1]; listed as VEGF165", "value": "induced a similar degree of eNOS expression; also recorded: induce eNOS up-regulation"}, {"measurement": "mean arterial pressure", "setting": "[5]", "value": "dose-rate dependent reduction in mean arterial pressure"}, {"measurement": "Relative Binding Affinity KDR Receptor", "setting": "[6]", "value": "1 (97 pM)"}, {"measurement": "eNOS association levels of caveolin and PLC-γ", "setting": "[7]", "value": "significantly reduces; also recorded: induces dissociation"}, {"measurement": "levels of Hsp90 and Hsp70 associated with eNOS", "setting": "[7]", "value": "increase the levels of Hsp90 and Hsp70 associated with eNOS; also recorded: increase association"}, {"measurement": "eNOS activity, acute treatment", "setting": "[8]; 0-60 min", "value": "time-dependent increase"}, {"measurement": "eNOS activity in treated cells versus untreated control cells", "setting": "[8]; 2 days VEGF", "value": "about 5 fold"}, {"measurement": "re-distribution of PKC isoforms from cytosolic to membrane fractions", "setting": "[9]", "value": "rapid re-distribution"}, {"measurement": "eNOS up-regulation in PAE/FLT-1 cells", "setting": "[10]", "value": "not in FLT-1 transfected PAE (PAE/FLT) cells; also recorded: not in FLT-1 containing PAE cells"}]}, {"compound": "VEGF110: heparin binding domain-deficient variant made from VEGF165 by limited proteolytic digestion with plasmin", "values": [{"measurement": "eNOS expression with KDR-specific VEGF variants", "setting": "[1]; 2 days", "value": "induced a similar degree of eNOS expression"}, {"measurement": "eNOS expression with VEGF forms and receptor-selective variants", "setting": "[1]", "value": "induced a similar degree of eNOS expression; also recorded: induce eNOS up-regulation"}]}]}
